Reference: patent US20250049029A1, “Agrochemical Compositions” (priority 2021, published 2025)

What was measured:
[1] = Micrographic check for crystals after combining active ingredient with permeable S-metolachlor capsule suspension; type: physicochemical
Protocol: During further testing, Composition 2 was made with metribuzin being the only active ingredient (i.e., S-metolachlor and mesotrione were not present). An image, at 50-micron scale bar, is provided at FIG. 4A. To this formulation, the capsule suspension used in Composition 2 was added.
Further testing was done by replacing the metribuzin with sulfentrazone. In these tests sulfentrazone technical (powder, Dv(95)=307 microns) was added to a composition the CS of Composition 2 at a ratio of S-metolachlor:sulfentrazone of 10:0.8, and mixed for 1 hour at 30° C. to provide additional solubilization over room temperature.

[2] = Particle size and wet sieve residue of S-metolachlor CS mixed with sulfentrazone technical; type: physicochemical; details: single component, before mixing
Protocol: Additional testing was done using two jars with S-metolachlor CS of Composition 2 and 8% sulfentrazone technical at a ratio of […]. One was mixed at room temperature and one at 30° C. for 1 hour.

Row | SMILES | sulfentrazone crystals observed ([1]; sulfentrazone technical added to CS of Composition 2, S-metolachlor:sulfentrazone 10:0.8, mixed 1 hour at 30° C., FIG. 5) | Dv(95) ([1]; sulfentrazone technical powder, before addition) [microns] | Dv(50) [2] | Dv(95) [2] | metribuzin crystals visible ([1]; Composition 2 made with metribuzin as only active ingredient, after adding the capsule suspension used in Composition 2, FIG. 4B)
1 | Cc1nn(-c2cc(NS(C)(=O)=O)c(Cl)cc2Cl)c(=O)n1C(F)F [sulfentrazone, Sulfentrazone] | no sulfentrazone crystals were observed | 307 | 30.3 | 307 | 
2 | CSc1nnc(C(C)(C)C)c(=O)n1N [metribuzin, Metribuzin] |  |  |  |  | no metribuzin crystals appeared visible
